Laboratory results from US20250346588A1, “IMIDAZOPYRIDINE AND OXAZOLOPYRIDINE DERIVATIVES AND ANALOGS THEREOF, METHODS OF PREPARATION THEREOF, METHODS OF HIF-1/2A PATHWAY INHIBITION, AND INDUCTION OF FERROPTOSIS” (KUDA THERAPEUTICS, INC., priority 2022, published 2025).

Columns and labels:
Type in all cases: cell-based, human
[1] = system: HIF-1α and HIF-2α; test: Western blots for HIF-1α and HIF-2α in ccRCC cells; settings: 786-0 or RCC10 ccRCC cells, 24h, relative to GAPDH
Protocol: (§1) Western blots were performed to determine the effects of the compounds on levels of HIF-2α and other relevant proteins, whereas qPCR was performed to determine the effects of compounds on transcript levels of HIF target genes. 786-0 or RCC10 cells were plated at 1×10E5 cells/well in 2 ml DMEM with 10% FBS/well in 6-well tissue culture plates. Cells were allowed to adhere overnight in a humidified incubator at 37° C. with 5% CO2, after which the appropriate concentrations of compounds in DMSO were added. DMSO concentrations were kept constant in all wells. After 24 h exposure to the compounds, cells were lysed and subjected to western blotting according to standard protocols. Antibodies for HIF-1α and HIF-2α and GAPDH were purchased from Cell Signaling Technology (Danvers, MA), whereas antibodies to IRP2 and pVHL were from Santa Cruz Biotechnology (Dallas, TX), and GPX4 antibody was from R&D Systems, Inc (Minneapolis, MN). Representative data in FIG. 2 show a dose-dependent effect of compounds in decreasing HIF-1/2α. Compounds also impact cellular iron sensing given by increased IRP2, which taken together indicate that cells sense decreased amounts of available iron, which triggers the iron starvation response initiated by IRP2 stabilization. Representative data shown in FIG. 3D show a dose dependent effect of the compounds on GPX4, which may indicate decreased resistance to ferroptosis. […] The data also show increased expression of ISCA2 with pVHL re-expression.

[2] = system: 786-0 cells; test: TBARS assay of lipid peroxidation (MDA); settings: 48h treatment
Protocol: Malondialdehyde (MDA) is an end product of lipid peroxidation products and can be used to indicate lipid peroxidation, which is a hallmark of ferroptosis. MDA adducts were quantitated in cells and tumor tissue using the TBARS-TCA Method kit (Cat 700870, Cayman Chemicals, Ann Arbour Michigan) according to the manufacturer's protocol. Briefly, 786-0 cells were seeded at 1.75×10E6 cells in T75 cm^2 flasks, allowed to adhere overnight in a humidified incubator at 37° C. with 5% CO2, then treated with test compounds for 48 h, RSL3 (as positive control for 6h) or DMSO control (volume of DMSO kept constant for all flasks). Cells were detached by trypsinization, pelleted by centrifugation, washed in PBS twice, resuspended in 200 μL PBS, then sonicated for 3 minutes in a sonicating water bath. Representative data showing effects of 26HCL or 62TFA in comparison to RSL3, a classical ferroptosis inducer, is shown in FIG. 5. For MDA quantitation in tumor chunks, 20-50 mg of tumor tissue was homogenized in 200-500 μL of PBS, then sonicated for 5 minutes in a sonicating water bath. The cell or tumor lysates were subjected to the colorimetric detection methods described in manufacturer's protocol. MDA concentration of cells was determined in comparison to a standard curve of MDA stock solution provided by the manufacturer. Data was plotted using Prism GraphPad 9.3.1 Software. […]

[3] = system: IRP2 and GPX4; test: Western blots for cellular iron-sensing machinery (IRP2, GPX4)
Protocol: as §1

[4] = system: HIF-2α Iron-Responsive Element (IRE); test: HIF-2α IRE-Luc reporter assay; settings: 786-0 cells stably expressing HIF-2α IRE-Luc, 24h
Protocol: Screens for inhibitory activity of compounds described herein were performed using 786-0 ccRCC cells that stably express HRE-Luc: 5 copies of the hypoxia-responsive element (HRE) fused to the pGL3 luciferase reporter (Promega Corp, Madison WI). 786-0 cells are pVHL deficient and thus constitutively express HIF-2α independently of cellular oxygen tension. Since 786-0 cells lack HIF-1α, HRE-driven luciferase activity is primarily HIF-2α driven, and has been previously validated. Cells were maintained at log phase growth in […] (DMEM) with 10% FBS in a humidified incubator at 37° C. with 5% CO2. For screening assays, cells were seeded at a density of 4,000 cells in 50 μl of complete media/well in quadruplicate wells/point in a 96-well plate. After 24 h, 50 μl of a 2× concentration of test compound was added to each well. […] After 24 h treatment, luciferase activity was measured using the Steady-Glo Luciferase assay system (Promega Corp) according to the manufacturer's protocol. Cell viability was measured in quadruplicate parallel wells using resazurin as recommended by the manufacturer (R&D systems, Minneapolis, MN). […] Representative data determined using Steady-Glo luciferase and resazurin are shown in FIGS. 1A and 1B respectively, with error bars showing SD. […]

[5] = system: RCC4 or 786-0 cells±pVHL re-expression; test: Cell viability with pVHL re-expression; settings: 48h

COc1ccc(-c2nnc(Nc3nc4c(OC)nccc4[nH]3)o2)cc1OC [Compound 26HCL, N-(4-Methoxy-1H-imidazo[4,5-c]pyridin-2-yl)-5-(3,4-dimethoxyphenyl)-1,3,4-oxadiazol-2-amine]
effect on HIF-1α and HIF-2α protein (Western blot) [1]: decreases HIF-1α and HIF-2α | lipid peroxidation (MDA-TBA adducts) [2]: induce lipid peroxidation to an extent comparable to the ferroptosis inducer RSL3 | effect on IRP2 protein (Western blot) ([3]; 786-0 or RCC10 ccRCC cells, 24h, relative to GAPDH): increases IRP2 | effect on IRP2 and GPX4 protein (Western blot) ([3]; higher concentrations of compound, FIG. 3D): decrease in IRP2 and GPX4 | effect on IRE-luciferase reporter activity normalized to resazurin [4]: decrease IRE-mediated translation of HIF-2α | effect of pVHL re-expression on cell viability response to compound [5]: re-expression of pVHL promotes resistance
